pIC50: −log10 of the molar value. Where two headings read alike, the source gives them in different places.
Tests used:
HCT116 MTAP^−/− cells = test: Cell proliferation inhibition test (Cell-Titer Glo), HCT116 MTAP−/−; type: cell-based, human; conditions: 6 days, read-out: HCT116 MTAP−/− Antiproliferative activity IC50
Outline: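 Cells seeded at 400 per well, overnight, then exposed 6 days at 37 °C to compound from 10 μM top final concentration in 3-fold dilutions. Viability by ATP luminescence (Cell-Titer Glo), normalised to medium-only and DMSO controls, IC50 by curve fitting.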

CYP2C9 = CYP2C9 (Homo sapiens (Human), UniProt P11712); test: CYP2C9 inhibition in human liver microsomes (diclofenac substrate); type: in vitro ADME; conditions: human liver microsome
Procedure: Test Example 7. Inhibitory Effect of Compound of the Present Application on Enzymatic Activity of CYP2C9, CYP2D6, and CYP3A4
The inhibition of CYP2C9, CYP2D6, and CYP3A4 activity by the compound of the present application was determined using the following method.
I. Experimental materials and instruments • 1. Human liver microsome (Corning 452117) • 2. NADPH (Solarbio 705Y021) • 3. Positive substrates diclofenac (Sigma SLBV3438), dextromethorphan (TRC 3-EDO-175-1), and midazolam (Cerilliant FE01161704) • 4. Positive inhibitors sulfaphenazole (D. Ehrenstorfer GmbH 109012), quinidine (TCI WEODL-RE), and ketoconazole (Sigma 100M1091V) • 5. AB Sciex Triple Quad 5500 liquid chromatography-mass spectrometry system
1. Preparation of 100 mM phosphate-buffered saline (PBS): 7.098 g Na2HPO4 was weighed. 500 mL pure water was added. The mixture was dissolved by sonication to give solution A. 3.400 g KH2PO4 was weighed. 250 mL pure water was added. The mixture was dissolved by sonication to give solution B. The solution A was placed in a stirrer, and the solution B was slowly added until the pH reached 7.4, so that the 100 mM PBS buffer was prepared.
2. A 10 mM NADPH solution was prepared with a 100 mM PBS buffer. A 10 mM stock solution of the compound of the present application was diluted with DMSO to give a compound working solution at a concentration of 200×(6000, 2000, 600, 200, 60, 20, and 0 μM). The positive inhibitor stock solution was diluted with DMSO to give a positive inhibitor working solution at a concentration of 200×(sulfaphenazole, 1000, 300, 100, 30, 10, 3, and 0 μM; quinidine/ketoconazole, 100, 30, 10, 3, 1, 0.3, and 0 μM). Substrate working solutions (120 μM diclofenac, 400 μM dextromethorphan, and 200 μM midazolam) at a concentration of 200× were prepared with water, acetonitrile, or acetonitrile/methanol.
3. 2 μL of 20 mg/mL liver microsome solution, 1 μL of substrate working solution, 1 μL of compound working solution, and 176 μL of PBS buffer were taken, mixed well, and placed in a 37° C. water bath for pre-incubation for 15 min. 1 μL of sulfaphenazole, quinidine, or ketoconazole working solution was added to the positive control group instead of the compound working solution. At the same time, 10 mM NADPH solution was placed together in the 37° C. water bath for pre-incubation for 15 min. After 15 min, 20 μL of NADPH was added to each well to initiate the reaction. The mixture was incubated at 37° C. for 5 min (CYP2C9), 20 min (CYP2D6), or 5 min (CYP3A4). All incubated samples were in duplicate. After incubation for the corresponding period of time, 400 μL of icy methanol containing internal standard was added to all samples to stop the reaction. The mixture was vortexed, mixed well, and centrifuged for 40 min at 4° C. at 3220 g. 100 μL of the supernatant was transferred to a feeding plate after the centrifugation was completed, and 100 μL ultrapure water was added. The mixture was well mixed for LC-MS/MS analysis.
The reduction of metabolite production in the treatment groups versus the control group was compared by the peak area ratios of the sample to the internal standard, and the IC50 value was calculated using Excel XLfit 5.3.1.3.
Percentages of remaining activity were calculated according to the following formula:
Remaining activity%=peak area ratio of metabolite to internal standardtest sample/peak area ratio of metabolite to internal standardblank solvent×100%.

CYP2C9, sequence (P11712 whole entry): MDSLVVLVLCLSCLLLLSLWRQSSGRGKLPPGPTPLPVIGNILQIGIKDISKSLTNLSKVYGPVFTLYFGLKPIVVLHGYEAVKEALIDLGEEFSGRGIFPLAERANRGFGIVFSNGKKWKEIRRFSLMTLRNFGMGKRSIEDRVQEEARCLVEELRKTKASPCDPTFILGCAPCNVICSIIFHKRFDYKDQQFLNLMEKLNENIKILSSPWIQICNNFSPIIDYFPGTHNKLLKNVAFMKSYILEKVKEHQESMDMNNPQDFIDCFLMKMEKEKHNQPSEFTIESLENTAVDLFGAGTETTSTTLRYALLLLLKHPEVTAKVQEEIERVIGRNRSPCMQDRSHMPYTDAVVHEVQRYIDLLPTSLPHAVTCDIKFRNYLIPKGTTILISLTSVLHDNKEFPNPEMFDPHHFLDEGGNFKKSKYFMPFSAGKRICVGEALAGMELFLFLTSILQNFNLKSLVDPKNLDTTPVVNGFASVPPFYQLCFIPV

Work on Cc1ncccc1-n1c(=O)c2ncn(C)c2c2ccc(C(F)(F)F)nc21 (atropisomer, axis not shown) [Compound 20, 1-methyl-5-(2-methylpyridin-3-yl)-7-(trifluoromethyl)-1,5-dihydro-4H-imidazo[4,5-c][1,8]naphthyridin-4-one] yielded a pIC50 (HCT116 MTAP^−/− cells; Homo sapiens, HCT-116, 144 h) of 7.12 and a pIC50 (CYP2C9) of less than 4.52.
With Cn1cnc2c(=O)n(-c3cccc(F)c3Cl)c3nc(C(F)(F)F)ccc3c21 (atropisomer, axis not shown) [Compound 25, 5-(2-chloro-3-fluorophenyl)-1-methyl-7-(trifluoromethyl)-1,5-dihydro-4H-imidazo[4,5-c][1,8]naphthyridin-4-one] the pIC50 (HCT116 MTAP^−/− cells; Homo sapiens, HCT-116, 144 h) was 6.81 and the pIC50 (CYP2C9) was less than 4.52.
For Cn1cnc2c(=O)n(-c3cccc(F)c3Cl)c3nc(C(F)(F)F)ccc3c21 (single isomer, unassigned) [Compound 25-P2, 5-(2-chloro-3-fluorophenyl)-1-methyl-7-(trifluoromethyl)-1,5-dihydro-4H-imidazo[4,5-c][1,8]naphthyridin-4-one], the pIC50 (HCT116 MTAP^−/− cells; Homo sapiens, HCT-116, 144 h) was 7.15 and the pIC50 (CYP2C9) was less than 4.52.
For Cn1cnc2c(=O)n(-c3cccnc3C(F)(F)F)c3nc(C(F)(F)F)ccc3c21 (single isomer, unassigned) [Compound 41-P2, 1-methyl-7-(trifluoromethyl)-5-(2-(trifluoromethyl)pyridin-3-yl)-1,5-dihydro-4H-imidazo[4,5-c][1,8]naphthyridin-4-one], the pIC50 (HCT116 MTAP^−/− cells; Homo sapiens, HCT-116, 144 h) was 7.10 and the pIC50 (CYP2C9) was less than 4.52.
Cn1cnc2c(=O)n(-c3cccnc3C3CC3)c3nc(C(F)(F)F)ccc3c21 (single isomer, unassigned) [Compound 42-P2, 5-(2-cyclopropylpyridin-3-yl)-1-methyl-7-(trifluoromethyl)-1,5-dihydro-4H-imidazo[4,5-c][1,8]naphthyridin-4-one] gave a pIC50 (HCT116 MTAP^−/− cells; Homo sapiens, HCT-116, 144 h) of 7.35 and a pIC50 (CYP2C9) of less than 4.52.
Work on Cn1cnc2c(=O)n(-c3cccnc3C3CC3)c3cc(C(F)(F)F)ccc3c21 (single isomer, unassigned) [Compound 48-P2, 5-(2-cyclopropylpyridin-3-yl)-1-methyl-7-(trifluoromethyl)-1,5-dihydro-4H-imidazo[4,5-c]quinolin-4-one] yielded a pIC50 (HCT116 MTAP^−/− cells; Homo sapiens, HCT-116, 144 h) of 7.04 and a pIC50 (CYP2C9) of less than 4.52.
In the case of Cn1cnc2c(=O)n(-c3cccnc3C3CC3)c3cc(Cl)ccc3c21 (single isomer, unassigned) [Compound 49-P2, 7-chloro-5-(2-cyclopropylpyridin-3-yl)-1-methyl-1,5-dihydro-4H-imidazo[4,5-c]quinolin-4-one], the pIC50 (HCT116 MTAP^−/− cells; Homo sapiens, HCT-116, 144 h) was 7.46 and the pIC50 (CYP2C9) was less than 4.52.
O=c1c2ncoc2c2ccc(C(F)(F)F)nc2n1-c1cccnc1C1CC1 (single isomer, unassigned) [Compound 81-P2, 5-(2-cyclopropylpyridin-3-yl)-7-(trifluoromethyl)oxazolo[4,5-c][1,8]naphthyridin-4(5H)-one] showed a pIC50 (HCT116 MTAP^−/− cells; Homo sapiens, HCT-116, 144 h) of 6.96 and a pIC50 (CYP2C9) of less than 4.52.
Cn1cnc2c(=O)n(-c3cccc(F)c3Cl)c3cc(Cl)ccc3c21 [Compound 39, 7-chloro-5-(2-chloro-3-fluorophenyl)-1-methyl-1,5-dihydro-4H-imidazo[4,5-c]quinolin-4-one] gave a pIC50 (HCT116 MTAP^−/− cells) of 6.97 and a pIC50 (CYP2C9) of less than 4.52.
Compound Cc1ncccc1-n1c(=O)c2ncoc2c2ccc(C(F)(F)F)nc21 [Compound 40, 5-(2-methylpyridin-3-yl)-7-(trifluoromethyl)oxazolo[4,5-c][1,8]naphthyridin-4(5H)-one] has a pIC50 (HCT116 MTAP^−/− cells; Homo sapiens, HCT-116, 144 h) of 6.92 and a pIC50 (CYP2C9) of less than 4.52.
Cc1ncccc1-n1c(=O)c2ncn(C)c2c2ccc(C(F)(F)F)cc21 [Compound 45, 1-methyl-5-(2-methylpyridin-3-yl)-7-(trifluoromethyl)-1,5-dihydro-4H-imidazo[4,5-c]quinolin-4-one] gave a pIC50 (HCT116 MTAP^−/− cells; Homo sapiens, HCT-116, 144 h) of 6.87 and a pIC50 (CYP2C9) of less than 4.52.

From US20240124454A1, “TRICYCLIC COMPOUND AND USE THEREOF” (NANJING ZAIMING PHARMACEUTICAL CO., LTD., priority 2020, published 2024)
